# Legend:
# [1] = system: mechanical allodynia induced by spinal nerve ligation in rats; assay: The rat (Chung) model of neuropathic pain; type: in vivo; conditions: for Withdrawal threshold (g) at peak effect: male Wistar rats, von Frey, vehicle 2.7 ± 0.2
# Description: The Rat (Chung) Model of Neuropathic Pain
# In this model, mechanical allodynia is induced by tight ligation of the left L5 spinal nerve.
# Male Wistar rats (228-301 g body weight at time of surgery) were employed in the study. Rats were placed on an elevated (˜40 cm) mesh floor in perspex boxes and the rats' withdrawal threshold to a mechanical stimulus (calibrated von Frey filaments) was measured using filaments of increasing force (2.6-167 mN). The von Frey filaments were applied to the plantar surface of the paw and threshold response determined using the up and down method. A positive response was noted if the paw was sharply withdrawn. A cut-off of 15 g was selected as the upper limit for testing. Following baseline measurements each animal was anaesthetised and the L5 spinal nerve tightly ligated. The animals were allowed to recover from the surgery for a period of at least three days. On the day of drug administration the paw withdrawal thresholds were re-measured (0 min). Immediately after this reading, the rats were dosed orally with vehicle or test compound and readings measured at various time points after compound administration.
# Data were expressed as mean±s.e.m. Statistical analysis was performed using the Kruskal-Wallis one-way analysis of variance, a non-parametric statistical test. Each of the treatment groups were then compared against the vehicle group, using the non-parametric Dunn's test.
# [2] = system: mechanical hyperalgesia induced by complete Freund's adjuvant in rats; assay: Mechanical hyperalgesia in the rat (CFA model of inflammatory pain); type: in vivo; conditions: for % Attenuation of hyperalgesia (peak effect): male Wistar rats, 24 h after CFA, reading 3 h post drug, vehicle −0.6 ± 11
# Description: Mechanical Hyperalgesia in the Rat
# In this rat model of inflammatory pain, inflammation is induced by subcutaneous injection of complete Freund's adjuvant (CFA) into the hind paw. The associated mechanical hyperalgesia is quantified by measuring the reduction in paw withdrawal threshold (PWT) to a mechanical compression of the paw.
# Experiments were in male Wistar rats weighing (141-175 g). In brief, the rats' paw withdrawal threshold (PWT) to a mechanical compression of the hind paw was measured (baseline reading) using a Randall-Sellito apparatus (Ugo Basile). A cut-off of 20 g was employed to minimise tissue damage to the paw. The animals were then lightly anaesthetised with isoflurane (1-3%) and CFA (0.1 ml.paw^−1) injected subcutaneously (s.c.) into the plantar surface of the left hind paw. The animals were then returned to their home cage and left for the inflammation to develop.
# Twenty four h after CFA injection, PWT's were re-measured (0 min) and immediately after this reading, rats were dosed orally with either vehicle or compound 3K (4.5-45 μmol/kg p.o.) Readings were then made at 3 h post drug administration.
# Data were plotted as mean±s.e.m. and compared between groups using the Kruskal-Wallis one-way analysis of variance, a non-parametric statistical test.
# The percent attenuation of mechanical hyperalgesia is calculated as follows.
structure (smiles),measurement,setting,value
"O=C1CN(Cc2ccc(-c3ccccc3CN3CCOCC3)cc2)C(=O)N1CC1CC1 [Example 3K, 3-Cyclopropylmethyl-1-(2′-(morpholin-4-ylmethyl)biphenyl-4-ylmethyl)imidazolidine-2,4-dione]",Withdrawal threshold (g) at peak effect,[1]; 4.5 μmol/kg p.o.,5.8 ± 1.1 g
same,Withdrawal threshold (g) at peak effect,"[1]; 15 μmol/kg p.o., p ≦ 0.05",6.4 ± 1.0 g
same,Withdrawal threshold (g) at peak effect,"[1]; 45 μmol/kg p.o., p ≦ 0.05",7.4 ± 1.3 g
same,Effect on mechanical allodynia,"[1]; 4.5-45 μmol/kg p.o., at 120 and 180 min post drug administration",attenuated mechanical allodynia in a dose-dependent fashion
same,Minimum effective dose (MED),"[1]; p.o., mechanical allodynia, rat",15 µmol/kg
same,% Attenuation of hyperalgesia (peak effect),[2]; 4.5 μmol/kg p.o.,36 ± 11%
same,% Attenuation of hyperalgesia (peak effect),"[2]; 45 μmol/kg p.o., p ≦ 0.001",100 ± 25 %
same,Effect on mechanical hyperalgesia induced by CFA,[2]; 4.5-45 μmol/kg oral,reversed mechanical hyperalgesia induced by CFA in a dose-dependent fashion
same,MED,"[2]; p.o., CFA-induced mechanical hyperalgesia, rat",4.4 µmol/kg

# Source: patent US7960560B2, “1-(biphenyl-4-ylmethyl)imidazolidine-2,4-dione” (N.V. Organon, priority 2008, dated 2011)
